Data taken from the supplement of paper PMC11451515.

Test system: SEM cells
Assay: cell viability relative to DMSO control; higher = less cytotoxic
Conditions: 48 h
In short: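 NOMO1 or SEM (500 cells/well) or P12-Ichikawa (1000 cells/well) leukemia cells were adapted for at least four passages in each medium. They were seeded in 1536-well plates (5 μl) and pin-dosed with library compounds in DMSO over an 11-point threefold series, 47 μM to 0.79 nM. CellTiter-Glo One luminescence was read after 48 h at 37°C. Viability is the per-plate percentage relative to DMSO wells, with cell-free wells as background.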

[1] = HPLM + 10% dialyzed FBS, 0.000781 µM
[2] = HPLM + 10% dialyzed FBS, 0.00234 µM
[3] = HPLM + 10% dialyzed FBS, 0.00702 µM
[4] = HPLM + 10% dialyzed FBS, 0.0211 µM
[5] = HPLM + 10% dialyzed FBS, 0.0632 µM
[6] = HPLM + 10% dialyzed FBS, 0.19 µM
[7] = HPLM + 10% dialyzed FBS, 0.569 µM
[8] = HPLM + 10% dialyzed FBS, 1.71 µM
[9] = HPLM + 10% dialyzed FBS, 5.12 µM
[10] = HPLM + 10% dialyzed FBS, 15.4 µM
[11] = HPLM + 10% dialyzed FBS, 46.1 µM
[12] = RPMI 5 mM glucose + 10% FBS, 0.000781 µM
[13] = RPMI 5 mM glucose + 10% FBS, 0.00234 µM
[14] = RPMI 5 mM glucose + 10% FBS, 0.00702 µM
[15] = RPMI 5 mM glucose + 10% FBS, 0.0211 µM
[16] = RPMI 5 mM glucose + 10% FBS, 0.0632 µM
[17] = RPMI 5 mM glucose + 10% FBS, 0.19 µM
[18] = RPMI 5 mM glucose + 10% FBS, 0.569 µM
[19] = RPMI 5 mM glucose + 10% FBS, 1.71 µM
[20] = RPMI 5 mM glucose + 10% FBS, 5.12 µM
[21] = RPMI 5 mM glucose + 10% FBS, 15.4 µM
[22] = RPMI 5 mM glucose + 10% FBS, 46.1 µM
[23] = RPMI 5 mM glucose + 10% dialyzed FBS, 0.000781 µM
[24] = RPMI 5 mM glucose + 10% dialyzed FBS, 0.00234 µM
[25] = RPMI 5 mM glucose + 10% dialyzed FBS, 0.00702 µM
[26] = RPMI 5 mM glucose + 10% dialyzed FBS, 0.0211 µM
[27] = RPMI 5 mM glucose + 10% dialyzed FBS, 0.0632 µM
[28] = RPMI 5 mM glucose + 10% dialyzed FBS, 0.19 µM
[29] = RPMI 5 mM glucose + 10% dialyzed FBS, 0.569 µM
[30] = RPMI 5 mM glucose + 10% dialyzed FBS, 1.71 µM
[31] = RPMI 5 mM glucose + 10% dialyzed FBS, 5.12 µM
[32] = RPMI 5 mM glucose + 10% dialyzed FBS, 15.4 µM
[33] = RPMI 5 mM glucose + 10% dialyzed FBS, 46.1 µM

| SMILES | cell viability [1] [%] | cell viability [2] [%] | cell viability [3] [%] | cell viability [4] [%] | cell viability [5] [%] | cell viability [6] [%] | cell viability [7] [%] | cell viability [8] [%] | cell viability [9] [%] | cell viability [10] [%] | cell viability [11] [%] | cell viability [12] [%] | cell viability [13] [%] | cell viability [14] [%] | cell viability [15] [%] | cell viability [16] [%] | cell viability [17] [%] | cell viability [18] [%] | cell viability [19] [%] | cell viability [20] [%] | cell viability [21] [%] | cell viability [22] [%] | cell viability [23] [%] | cell viability [24] [%] | cell viability [25] [%] | cell viability [26] [%] | cell viability [27] [%] | cell viability [28] [%] | cell viability [29] [%] | cell viability [30] [%] | cell viability [31] [%] | cell viability [32] [%] | cell viability [33] [%] |
| --- | --- | --- | --- | --- | --- | --- | --- | --- | --- | --- | --- | --- | --- | --- | --- | --- | --- | --- | --- | --- | --- | --- | --- | --- | --- | --- | --- | --- | --- | --- | --- | --- | --- |
| FC1=C(C=C(C\C2=N\NC(=O)C3=C2C=CC=C3)C=C1)C(=O)N4CCN(CC4)C(=O)C5CC5 | 80.9 | 84 | 100 | 99 | 97 | 94.9 | 85.7 | 91.6 | 86.5 | 19.7 | 41.1 | 94.7 | 95.8 | 103 | 109 | 107 | 105 | 92.8 | 87.1 | 76.3 | 13.1 | 26.5 | 71.6 | 79 | 92 | 70.5 | 77.7 | 81.3 | 74.8 | 78.2 | 62.4 | 17.5 | 24.8 |
| CCOC(=O)[C@@H](N)Cc1ccc(-c2cc(O[C@H](c3ccc(Cl)cc3-n3ccc(C)n3)C(F)(F)F)nc(N)n2)cc1.O=C(O)CNC(=O)c1ccccc1 | 100 | 129 | 93.3 | 133 | 127 | 107 | 126 | 125 | 115 | 110 | 45.1 | 96.4 | 112 | 82.2 | 110 | 114 | 103 | 98.6 | 113 | 97.1 | 115 | 17.1 | 106 | 132 | 111 | 118 | 102 | 119 | 120 | 111 | 109 | 117 | 24 |
| CC1=C(C)C(=O)C(C(CCCCCC(=O)O)c2ccccc2)=C(C)C1=O (centres undefined) | 63.6 | 70.7 | 56.2 | 69.2 | 65.6 | 78.1 | 71.6 | 64.6 | 59.7 | 44.7 | 41 | 77.4 | 92 | 73.4 | 79.9 | 75.1 | 77.4 | 59 | 57.3 | 35.1 | 26.7 | 31.9 | 54.8 | 74.5 | 57.1 | 69.9 | 75.2 | 97.2 | 58.6 | 76.6 | 46.5 | 48.6 | 24.9 |
| CN[C@@H](C)[C@H]1[C@H](O)C[C@@]2(C)[C@@H]3CC[C@H]4C(C)(C)[C@@H](NC)CC[C@@]45C[C@@]35CC[C@]12C | 73.4 | 83.6 | 53.9 | 85.5 | 90.1 | 95.8 | 83.2 | 98.4 | 42.5 | 93.4 | 66.3 | 81.8 | 83.2 | 56 | 95.2 | 82.7 | 83.3 | 109 | 68.9 | 40 | 100 | 103 | 72.7 | 75.4 | 66.4 | 83.4 | 87.3 | 99.2 | 109 | 93.9 | 44.3 | 99.4 | 89.8 |
| CC(C)(C)NC(=O)Nc1cccc(Nc2ncc(F)c(NC(C)(C)CO)n2)c1 | 101 | 99.9 | 103 | 104 | 109 | 102 | 99.8 | 101 | 77.1 | 31.5 | 29.9 | 108 | 103 | 104 | 108 | 115 | 120 | 95.8 | 102 | 69.1 | 16.4 | 9.58 | 107 | 118 | 110 | 115 | 115 | 120 | 111 | 103 | 71.8 | 19.9 | 16 |
| O=C(O)C1(Cc2cccc(Nc3nccs3)n2)CCC(Oc2cccc(Cl)c2F)CC1 (centres undefined) | 86.3 | 108 | 93.3 | 68.4 | 104 | 101 | 108 | 75.6 | 42 | 28.9 | 18.9 | 97 | 88.9 | 101 | 87.4 | 114 | 96.5 | 102 | 66.5 | 43.1 | 22.2 | 12.7 | 81.9 | 86.5 | 97.5 | 92.6 | 95.1 | 111 | 111 | 68.7 | 43.2 | 25.2 | 17.1 |
| O=c1[nH]c(=O)n([C@H]2C[C@H](O)[C@@H](CO)O2)cc1/C=C/Br | 92.7 | 116 | 101 | 120 | 119 | 119 | 114 | 100 | 86.4 | 78.7 | 60.2 | 101 | 121 | 114 | 109 | 123 | 105 | 119 | 117 | 115 | 119 | 120 | 90.8 | 117 | 103 | 98.6 | 106 | 112 | 116 | 116 | 111 | 102 | 82.2 |
| CC1(C)O[C@@H]2C[C@H]3[C@@H]4C[C@H](F)C5=CC(=O)C=C[C@]5(C)[C@@]4(F)[C@@H](O)C[C@]3(C)[C@]2(C(=O)CO)O1 | 97.9 | 98.7 | 91.3 | 83.5 | 58.3 | 51.5 | 41 | 44.9 | 43.8 | 54.4 | 45.4 | 98.3 | 120 | 87.1 | 82.6 | 65.5 | 63.2 | 63.4 | 49.5 | 51.1 | 56.1 | 53.7 | 116 | 109 | 98.4 | 91.3 | 59.6 | 55.2 | 39.1 | 51.7 | 47.8 | 44.6 | 49.2 |
